Results as given in patent US11207313B2, “Pharmaceutical composition” (Novartis AG, priority 2017, dated 2021).

Tests used:
Type in all cases: physicochemical
[1] = Precipitation of Compound A under dispersion in pH 6.5 buffer (microscope); settings: room temperature, after at least 6 hours, all developed formulations
Description: Then, the precipitation of Compound A in each formulation was controlled by microscope under dispersion in pH 6.5 buffer at room temperature.

[2] = Solubility of Compound A in formulations and precipitation on storage at room temperature
[3] = Biopharmaceutics classification and water solubility statement
Description: The design of a pharmaceutical composition, a pharmaceutical dosage form, as well as a commercially viable process to prepare the pharmaceutical composition, for a non-bile FXR agonist, such as 2-[(1R,3R,5S)-3-({5-cyclopropyl-3-[2-(trifluoromethoxy)phenyl]-1,2-oxazol-4-yl}methoxy)-8-azabicyclo[3.2.1]octan-8-yl]-4-fluoro-1,3-benzothiazole-6-carboxylic acid, or a pharmaceutically acceptable salt thereof, is especially challenging. […] For example, due to its very high potency a low dosage is needed, generating unwanted formulation issues such as content uniformity, and additional handling restrictions on a large manufacturing scale. […] Accordingly, a suitable and robust solid pharmaceutical composition overcoming the above problems needs to be developed.

O=C(O)c1cc(F)c2nc(N3C4CCC3CC(OCc3c(-c5ccccc5OC(F)(F)F)noc3C3CC3)C4)sc2c1 [Compound A, 2-[(1R,3R,5S)-3-({5-cyclopropyl-3-[2-(trifluoromethoxy)phenyl]-1,2-oxazol-4-yl}methoxy)-8-azabicyclo[3.2.1]octan-8-yl]-4-fluoro-1,3-benzothiazole-6-carboxylic acid]
Precipitation of Compound A under dispersion [1]: No precipitation | Precipitation after storage ([2]; 7 days storage at room temperature, all formulations): no precipitation was observed | Solubility of Compound A in formulations ([2]; all formulations of Tables 1 to 3 combined with Compound A): fully soluble | Biopharmaceutics classification system class [3]: class IV | Water solubility [3]: low water solubility
